The nature of this series: In vitro dissolution test, microcentrifuge method, in phosphate buffered saline (PBS) pH 6.5. In kind it is physicochemical. Here is the method: The compositions comprising the CETP inhibitor and concentration-enhancing polymer provide enhanced concentration of the dissolved CETP inhibitor in in vitro dissolution tests. […] An appropriate PBS solution is an aqueous solution comprising 20 mM sodium phosphate (Na2HPO4), 47 mM potassium phosphate (KH2PO4), 87 mM NaCl, and 0.2 mM KCl, adjusted to pH 6.5 with NaOH. An appropriate MFD solution is the same PBS solution wherein additionally is present 7.3 mM sodium taurocholic acid and 1.4 mM of 1-palmitoyl-2-oleyl-sn-glycero-3-phosphocholine. In particular, a composition of the present invention can be dissolution-tested by adding it to MFD or PBS solution and agitating to promote dissolution.
Indeed, for some extremely insoluble CETP inhibitors, in order to identify the MDC achieved it may be necessary to use an amount of test composition such that if all of the CETP inhibitor dissolved, the CETP inhibitor concentration would be 10,000-fold or even more, that of the equilibrium concentration of the CETP inhibitor.
The MDC is taken to be the maximum value of dissolved CETP inhibitor measured over the duration of the test.
Filtration can be conducted using a 13 mm, 0.45 μm polyvinylidine difluoride syringe filter sold by Scientific Resources under the trademark TITAN®. Centrifugation is typically carried out in a polypropylene microcentrifuge tube by centrifuging at 13,000 G for 60 seconds. Other similar filtration or centrifugation methods can be employed and useful results obtained.
The spray-dried dispersions of Examples 6 and 7 were evaluated in an in vitro dissolution test using a microcentrifuge method. In this test, the spray-dried dispersion was added to a microcentrifuge tube for a Drug 2 dose of about 1000 μg/mL (7.2 mg for Example 6, 18 mg for Example 7). The tube was placed in a 37° C. sonicating bath, and 1.8 mL phosphate buffered saline (PBS) at pH 6.5 and 290 mOsm/kg was added. The samples were quickly mixed using a vortex mixer for about 60 seconds. The samples were centrifuged at 13,000 G at 37° C. for 1 minute. The resulting supernatant solution was then sampled and diluted 1:6 (by volume) with methanol and then analyzed by high-performance liquid chromatography (HPLC). The contents of the tubes were mixed on the vortex mixer and allowed to stand undisturbed at 37° C. until the next sample was taken. Samples were collected at 4, 10, 20, 40, 90, and 1200 minutes.
For Control 2, an in vitro dissolution test was performed using the procedures described above except that 1.8 mg of crystalline Drug 2 was used.
In this method, 7.2 mg of each spray-dried dispersion was added to a 2-mL microcentrifuge tube. The tube was placed in a 37° C. sonicating bath, and 1.8 mL of a phosphate-buffered saline (PBS) solution at pH 6.5 and 290 mOsm/kg was added, resulting in a TCmax of 400 μg/mL. The samples were quickly mixed using a combination of vortex mixer and sonication for about 90 seconds. The samples were centrifuged at 13,000 G at 37° C. for 1 minute. The resulting supernatant solution was then sampled and diluted 1:6 (by volume) with methanol and then analyzed by HPLC. The tubes were then mixed on the vortex mixer and allowed to stand undisturbed at 37° C. until the next sample. Samples were collected at 4, 10, 20, 40, 90 and 1200 minutes.
For Control 5, an in vitro dissolution test was performed using the procedure described above, except that 0.72 mg of non-crystalline Drug 3 was placed in a microcentrifuge tube and mixed with 1.8 mL of PBS.
In this method, 15 mg of each SDD was added to a 2-mL microcentrifuge tube. The tube was placed in a 37° C. sonicating bath, and 1.5 mL of a phosphate-buffered saline (PBS) solution at pH 6.5 and 290 mOsm/kg) was added, resulting in a TCmax of 1000 μg/mL. The samples were quickly mixed using a combination of vortex mixer and sonication for about 90 seconds.

Where [1] appears, read: Table 13, Drug 3, PBS, TCmax 400 μg/mL.
Where [2] appears, read: PBS pH 6.5, 37° C., TCmax 1000 μg/mL, time 0 min.
Setting [3] is: PBS pH 6.5, 37° C., TCmax 1000 μg/mL, time 4 min.
Setting [4] is: PBS pH 6.5, 37° C., TCmax 1000 μg/mL, time 10 min.
Setting [5] is: PBS pH 6.5, 37° C., TCmax 1000 μg/mL, time 20 min.
[6] abbreviates: PBS pH 6.5, 37° C., TCmax 1000 μg/mL, time 40 min.
The mark [7] stands for this setting: PBS pH 6.5, 37° C., TCmax 1000 μg/mL, time 90 min.
[8] abbreviates: Table 16, Drugs 4-9, PBS pH 6.5, 37° C., TCmax 1000 μg/mL.

Consider six molecules from patent US8389011B2, “Pharmaceutical compositions of cholesteryl ester transfer protein inhibitors” (Bend Research, Inc., priority 2000, dated 2013).

A value given as a limit tells only on which side of the number the result lay.

As to `CCCOC(=O)N1c2ccc(C(F)(F)F)cc2[C@@H](N(Cc2cc(C(F)(F)F)cc(C(F)(F)F)c2)C(=O)OC)C[C@H]1CC` [Control 5, [2R,4S]4-[(3,5-bis-trifluoromethyl-benzyl)-methoxycarbonyl-amino]-2-ethyl-6-trifluoromethyl-3,4-dihydro-2H-quinoline-1-carboxylic acid propyl ester], the Concentration is, setting by setting: (Table 12, Drug 3, PBS pH 6.5, 37° C., 0 min, TCmax 400 μg/mL) 0 ng/mL; (Table 12, Drug 3, PBS pH 6.5, 37° C., 4 min, TCmax 400 μg/mL) <100 ng/mL; (Table 12, Drug 3, PBS pH 6.5, 37° C., 10 min, TCmax 400 μg/mL) <100 ng/mL; (Table 12, Drug 3, PBS pH 6.5, 37° C., 20 min, TCmax 400 μg/mL) <100 ng/mL; (Table 12, Drug 3, PBS pH 6.5, 37° C., 40 min, TCmax 400 μg/mL) <100 ng/mL; (Table 12, Drug 3, PBS pH 6.5, 37° C., 90 min, TCmax 400 μg/mL) <100 ng/mL. The AUC (Table 12, Drug 3, PBS pH 6.5, 37° C., to 0 min, TCmax 400 μg/mL) came to 0 min-μg/mL; the AUC (Table 12, Drug 3, PBS pH 6.5, 37° C., to 4 min, TCmax 400 μg/mL) is on record as <0.4 min-μg/mL; the AUC (Table 12, Drug 3, PBS pH 6.5, 37° C., to 10 min, TCmax 400 μg/mL) is reported as <1.0 min-μg/mL; the AUC (Table 12, Drug 3, PBS pH 6.5, 37° C., to 20 min, TCmax 400 μg/mL) is given as <2.0 min-μg/mL; the AUC (Table 12, Drug 3, PBS pH 6.5, 37° C., to 40 min, TCmax 400 μg/mL) is on record as <4.0 min-μg/mL; the AUC (Table 12, Drug 3, PBS pH 6.5, 37° C., to 90 min, TCmax 400 μg/mL) is reported as <9.0 min-μg/mL. In addition, the AUC90 under setting [1] was <9.0 min-μg/mL. For the same molecule, the “Cmax, 90” value under setting [1] is <100 ng/mL.

For `CCOC(=O)N1c2cc(OC)c(OC)cc2[C@@H](N(Cc2cc(C(F)(F)F)cc(C(F)(F)F)c2)C(=O)OC)C[C@H]1C` [Control 6, [2R,4S]4-[(3,5-bis-trifluoromethyl-benzyl)-methoxycarbonyl-amino]-6,7-dimethoxy-2-methyl-3,4-dihydro-2H-quinoline-1-carboxylic acid ethyl ester], the AUC is, setting by setting: under setting [2], 0 min-μg/mL; under setting [3], <4 min-μg/mL; under setting [4], <10 min-μg/mL; under setting [5], <20 min-μg/mL; under setting [6], <40 min-μg/mL; under setting [7], <90 min-μg/mL. Further, the Concentration under setting [2] was 0 ng/mL; the Concentration under setting [3] was <1000 ng/mL; the Concentration under setting [4] was <1000 ng/mL; the Concentration under setting [5] is <1000 ng/mL; the Concentration under setting [6] was <1000 ng/mL; the Concentration under setting [7] was <1000 ng/mL. For the same molecule, under setting [8], the AUC90 is <90 min-μg/mL. In addition, under setting [8], the “Cmax, 90” value is <1000 ng/mL.

For `CCOC(=O)N1c2cc(CC)c(CC)cc2[C@@H](N(Cc2cc(C(F)(F)F)cc(C(F)(F)F)c2)C(=O)OC)C[C@H]1C` [Control 7, [2R,4S]4-[(3,5-bis-trifluoromethyl-benzyl)-methoxycarbonyl-amino]-6,7-diethyl-2-methyl-3,4-dihydro-2H-quinoline-1-carboxylic acid ethyl ester], the AUC is, setting by setting: under setting [2], 0 min-μg/mL; under setting [3], <4 min-μg/mL; under setting [4], <10 min-μg/mL; under setting [5], <20 min-μg/mL; under setting [6], <40 min-μg/mL; under setting [7], <90 min-μg/mL. Moreover, the Concentration under setting [2] turned out to be 0 ng/mL; the Concentration under setting [3] is <1000 ng/mL; the Concentration under setting [4] was <1000 ng/mL; the Concentration under setting [5] is <1000 ng/mL; the Concentration under setting [6] is <1000 ng/mL; the Concentration under setting [7] was <1000 ng/mL. In addition, the AUC90 under setting [8] is recorded as <90 min-μg/mL. The “Cmax, 90” value under setting [8] was <1000 ng/mL.

Regarding `CCOC(=O)N1c2cc3c(cc2[C@@H](N(Cc2cc(C(F)(F)F)cc(C(F)(F)F)c2)C(=O)OC)C[C@H]1C)CCC3` [Control 8, [2R,4S]4-[(3,5-bis-trifluoromethyl-benzyl)-methoxycarbonyl-amino]-2-methyl-2,3,4,6,7,8-hexahydro-cyclopenta[g]quinoline-1-carboxylic acid ethyl ester], the AUC under setting [3] was <4 min-μg/mL; the AUC under setting [4] is <10 min-μg/mL; the AUC under setting [5] is reported as <20 min-μg/mL; the AUC under setting [6] is reported as <40 min-μg/mL; the AUC under setting [7] is <90 min-μg/mL. Besides, the Concentration was <1000 ng/mL under setting [3]; <1000 ng/mL under setting [4]; <1000 ng/mL under setting [5]; <1000 ng/mL under setting [6]; <1000 ng/mL under setting [7]. In addition, the AUC90 under setting [8] is recorded as <90 min-μg/mL. Besides, the “Cmax, 90” value under setting [8] was <1000 ng/mL.

Regarding `COC(=O)N(Cc1cc(C(F)(F)F)cc(C(F)(F)F)c1)[C@H]1C[C@@H](C2CC2)N(C(=O)OC(C)C)c2ccc(C(F)(F)F)cc21` [Control 10, [2S,4S]4-[(3,5-bis-trifluoromethyl-benzyl)-methoxycarbonyl-amino]-2-cyclopropyl-6-trifluoromethyl-3,4-dihydro-2H-quinoline-1-carboxylic acid isopropyl ester], the AUC by setting is: under setting [2], 0 min-μg/mL; under setting [3], <4 min-μg/mL; under setting [4], <10 min-μg/mL; under setting [5], <20 min-μg/mL; under setting [6], <40 min-μg/mL; under setting [7], <90 min-μg/mL. Also, the Concentration by setting is: under setting [2], 0 ng/mL; under setting [3], <1000 ng/mL; under setting [4], <1000 ng/mL; under setting [5], <1000 ng/mL; under setting [6], <1000 ng/mL; under setting [7], <1000 ng/mL. Moreover, under setting [8], the AUC90 is <90 min-μg/mL. Moreover, under setting [8], the “Cmax, 90” value is <1000 ng/mL.

For `CC1(C)Cc2nc(C3CCCC3)c([C@@H](F)c3ccc(C(F)(F)F)cc3)c(-c3ccc(F)cc3)c2[C@@H](O)C1` [Control 11, [3S,5S]2-cyclopentyl-4-(4-fluoro-phenyl)-3-[fluoro-(4-trifluoromethyl-phenyl)-methyl]-7,7-dimethyl-5,6,7,8-tetrahydro-quinolin-5-ol], the AUC by setting is: under setting [2], 0 min-μg/mL; under setting [3], <4 min-μg/mL; under setting [4], <10 min-μg/mL; under setting [5], <20 min-μg/mL; under setting [6], <40 min-μg/mL; under setting [7], <90 min-μg/mL. The Concentration is 0 ng/mL under setting [2]; <1000 ng/mL under setting [3]; <1000 ng/mL under setting [4]; <1000 ng/mL under setting [5]; <1000 ng/mL under setting [6]; <1000 ng/mL under setting [7]. Besides, under setting [8], the AUC90 was <90 min-μg/mL. For the same molecule, under setting [8], the “Cmax, 90” value is <1000 ng/mL.
